# Source: US20230110128A1, “USE OF ANTIBODY DRUG CONJUGATES COMPRISING TUBULIN DISRUPTING AGENTS TO TREAT SOLID TUMOR” (Seagen Inc., priority 2018, published 2023)
# Columns and labels:
# MCF7 cells = assay: ATP secretion from MCF7 cells; assay type: cell-based; settings: after 48 hours of treatment
# MCF7 breast cancer cells = assay: Western blot analysis of ER stress response in MCF7 cells; assay type: cell-based; settings: FIG. 16A
# Description: MCF7 breast cancer cells were treated with 100 nM MMAE for 16 hours and harvested RIPA buffer for western blot analysis.
# MCF7 cells were treated with MMAE or an MMAE-containing ADC (SGN-LIV1A) for 16 hours and harvested in […] for western bot analysis. […] Induction of ICD is also characterized by the secretion of ATP and HMGB1. Extracellular ATP serves as a strong chemotactic signal, promoting immune cell migration to the tumor site. Upon arrival, extracellular HMGB1 signals through various pro-inflammatory receptors (TLR2, TLR4, RAGE) to activate antigen-presenting cells, thereby promoting immune activity within the tumor.
# [1] = test system: A2058, SK-MEL-5, SK-MEL-28 (skin) cell lines; assay: ATP secretion in skin cell lines; assay type: cell-based; settings: A2058, SK-MEL-5, SK-MEL-28, after 17 hours
# Description: (§1) Skin tumor lines A2058, SK-MEL-5 and SK-MEL-28, Calu-1 (lung), HT-1080 (fibrosarcoma), SK-MES-1 (lung), and BXPC3 (pancreas) cells were treated with MMAE, vincristine, and Paclitaxel. Supernatant was collected after 17 hours of treatment, and analyzed for ATP secretion.
# BxPC-3 cells = assay: ATP secretion from BxPC-3 cells; assay type: cell-based; settings: 17 hours
# MiaPaca2 cells = assay: ATP secretion from MiaPaca2 cells; assay type: cell-based; settings: supernatant after 16 hours
# Description: MiaPaca2 cells were treated with MMAE, Vincristine, or Paclitaxel. Supernatant was collected after 16 hours of treatment, and analyzed for ATP secretion.
# [2] = test system: A2058, SK-MEL-5, SK-MEL-28, Calu-1, HT-1080, SK-MES-1, BXPC3 and HPAFII cells; assay: HMGB1 release by ELISA in a panel of solid tumor cell lines; assay type: cell-based; settings: supernatant after one night of treatment
# Description: A2058, SK-MEL-5, SK-MEL-28 (skin), Calu-1, HT-1080, SK-MES-1 (lung), and BXPC3 and HPAFII (pancreas) cells were treated with an MMAE-containing ADC (e.g., anti-p97-MMAE or anti-CD71-MMAE) or Paclitaxel. Supernatant was collected after one night of treatment, and analyzed for HMGB1 release by ELISA. […] See, e.g., FIG. 70 and additional description below.
# [3] = test system: MiaPaca-CHOP-luciferase cells; assay: CHOP-driven luciferase reporter assay of severe ER stress; assay type: cell-based; settings: after 16 hours
# Description: Severe ER stress leads to upregulation of CHOP, and initiates mitochondrial apoptosis. MiaPaca2 pancreatic tumor cells were engineered to express a CHOP-driven luciferase reporter system (purchased from Signosis, Inc.) that allows for quantifiable monitoring of severe ER stress. MiaPaca-CHOP-luciferase cells were treated with MMAE, vincristine, and Paclitaxel, and assayed for luciferase expression after 16 hours.
# [4] = test system: HeLa cervical cancer cells; assay: Western blot analysis of ER stress in HeLa cells; assay type: cell-based; settings: 1000 nM or 100 nM, 16 hours
# Description: HeLa cervical cancer cells were treated with 1000 nM or 100 nM MMAE, Vincristine, or Paclitaxel for 16 hours and harvested for western blot analysis.
# [5] = test system: BxPC3 and HPAFII (pancreas) cells co-cultured with macrophages; assay: Macrophage antigen presentation after co-culture with treated pancreas tumor cells; assay type: cell-based; settings: BxPC3 and HPAFII treated 24 hours; macrophages harvested 4 days after co-culture
# Description: Macrophages were enriched from PBMCs from 2 healthy donors by adhering PBMCs to cell culture-grade plastic. Non-adherent cells were removed 24 hours later, leaving a population of cells enriched for macrophages.
# BxPC3 and HPAFII (pancreas) cells were treated with MMAE, vincristine, and Paclitaxel for 24 hours. Cells were washed and harvested, and subsequently co-cultured with the enriched macrophages prepared above. Macrophages were harvested 4 days after co-culture and assayed for immune activation by flow cytometry. Level of antigen-presentation (as measured by frequency of MHCII-expressing cells) was quantified and normalized to macrophages that were co-cultured with untreated tumor cells.
# [6] = test system: PC-3 prostate tumor cells; assay: ATP secretion from PC-3 cells; assay type: cell-based; settings: supernatant after 16 hours
# Description: PC-3 prostate tumor cells were also treated with MMAE, Vincristine, or Paclitaxel. Supernatant was collected after 16 hours of treatment, and analyzed for ATP secretion. […] PC-3 cells were treated for 24 hours with an MMAE-containing ADC (SGN-LIV1A) or MMAE and harvested in RIPA buffer for western blot analysis (FIG. 3C).
# [7] = test system: MiaPaca-CHOP-luciferase cells subcutaneously engrafted; assay: Tumoral CHOP luciferase signal in engrafted MiaPaca-CHOP-luciferase tumors; assay type: in vivo, NOD/SCID/gamma-chain deficient mice; settings: intratumorally; MMAE 0.36 mg/kg, vincristine 1.0 mg/kg, Paclitaxel 10 mg/kg
# Description: MiaPaca-CHOP-luciferase cells were subcutaneously engrafted into NOD/SCID/gamma-chain deficient mice. Subcutaneous tumors were treated intratumorally with MMAE (0.36 mg/kg), vincristine (1.0 mg/kg), and Paclitaxel (10 mg/kg) and tumoral luciferase signal was monitored over time.
# [8] = test system: Hep3b, Huh7, and JHH7 cells; assay: ATP secretion from liver tumor lines; assay type: cell-based; settings: Huh7, JHH7, 24 hours
# Description: (§2) Liver tumor lines Hep3b, Huh7, and JHH7 cells were treated with MMAE, Tubulysin M, vincristine, and Paclitaxel for 24 hours and analyzed for ATP secretion. […] Cells were washed and harvested, and subsequently co-cultured with enriched macrophages prepared as above. Macrophages were harvested 4 days after co-culture and assayed for immune activation by flow cytometry. Levels of costimulation (as measured by CD86 expression, JHH7) and antigen-presentation (as measured by frequency of MHCII-expressing cells, Hep3b, Huh7, and JHH7) were quantified and normalized to macrophages that were co-cultured with […]. […] Supernatant from the co-culture of macrophages and dying liver tumor cells was harvested 24 hours later and assayed for levels of cytokine and chemokine production by ELISA and normalized to macrophages that were co-cultured with untreated tumor cells.
# [9] = test system: Hep3b, Huh7, and JHH7 cells co-cultured with macrophages; assay: Cytokine and chemokine production in macrophage co-culture with treated liver tumor cells; assay type: cell-based; settings: Huh7, JHH7 co-culture supernatant 24 hours, ELISA, normalized to untreated
# Description: as §2
# [10] = test system: A2058, SK-MEL-5, SK-MEL-28, Calu-1, HT-1080, SK-MES-1 and BXPC3 cells; assay: ATP secretion in a panel of solid tumor cell lines; assay type: cell-based; settings: 7 cell lines, supernatant after 17 hours
# Description: as §1
# MDA-MB-468 cells = assay: ATP secretion from MDA-MB-468 cells; assay type: cell-based; settings: supernatant after 48 hours
# Description: MDA-MB-468 cells were treated with MMAE or an MMAE-containing ADC (ASG-22ME). Supernatant was collected after 48 hours of treatment, and analyzed for ATP secretion.
# T-24 (bladder) cells = assay: ATP secretion from T-24 cells; assay type: cell-based; settings: 48 hours
# Description: (§3) T-24 (bladder) cells were treated with MMAE or an MMAE-containing ADC (ASG-22ME) for 48 hours and analyzed for ATP secretion. […] T-24 cells were also treated with MMAE, an MMAE-containing ADC (ASG22ME, Enfortumab vedotin), vincristine, and Paclitaxel for 24 hours. Cells were washed and harvested, and subsequently co-cultured with the enriched macrophages as above. Macrophages were harvested 4 days after co-culture and assayed for immune activation by flow cytometry. Level of antigen-presentation (as measured by frequency of MHCII-expressing macrophages) was quantified and normalized to macrophages that were co-cultured with untreated tumor cells. […] Supernatant from the co-culture of macrophages and dying T-24 tumor cells was harvested after 24 hours and assayed for levels of cytokine and chemokine production by ELISA and normalized to macrophages that were co-cultured with untreated tumor cells.
# [11] = test system: T-24 tumor cells co-cultured with macrophages; assay: Cytokine and chemokine production in macrophage co-culture with treated T-24 cells; assay type: cell-based; settings: T-24 co-culture supernatant after 24 hours, ELISA, normalized to untreated
# Description: as §3
# [12] = test system: T-24 cells co-cultured with macrophages; assay: Macrophage antigen presentation after co-culture with treated T-24 cells; assay type: cell-based; settings: T-24 treated 24 hours; macrophages harvested 4 days after co-culture
# Description: as §3
Compound,ATP secretion (MCF7 cells),Severe ER stress (phosphorylation of IRE1 and JNK) (MCF7 breast cancer cells),ATP secretion (BxPC-3 cells),Luciferase signal as a proxy of severe ER stress induction [3],ER stress responses (phosphorylation of IRE1) [4],Antigen-presentation (frequency of MHCII-expressing cells) [5],ATP secretion [6],Severe ER stress in engrafted tumors (tumoral luciferase signal over time) [7],also measured
"CC(=O)O[C@@]12CO[C@@H]1C[C@H](O)[C@@]1(C)C(=O)[C@H](O)C3=C(C)[C@@H](OC(=O)[C@H](O)[C@@H](NC(=O)OC(C)(C)C)c4ccccc4)C[C@@](O)([C@@H](OC(=O)c4ccccc4)[C@H]21)C3(C)C [Docetaxel, docetaxel, reference compound]",neither Paclitaxel nor Docetaxel elicited ATP secretion,do not elicit JNK phosphorylation,,,,,,,
"CC(=O)O[C@H]1C(=O)[C@@]2(C)[C@H]([C@H](OC(=O)c3ccccc3)[C@]3(O)C[C@H](OC(=O)[C@H](O)[C@@H](NC(=O)c4ccccc4)c4ccccc4)C(C)=C1C3(C)C)[C@]1(OC(C)=O)CO[C@@H]1C[C@@H]2O [Paclitaxel, paclitaxel]",neither Paclitaxel nor Docetaxel elicited ATP secretion,do not elicit JNK phosphorylation,equivalent levels of ATP secretion,modest luciferase signal at the peak doses,activated ER stress responses,did not lead to changes in macrophage antigen-presentation,modest ATP secretion,does not induce ER stress,ATP secretion (skin cell lines responding) [1]: ATP secretion from only 1 of 3 cell lines; ATP secretion (MiaPaca2 cells): modest ATP secretion; HMGB1 release (cell lines responding) [2]: HMGB1 release in most of the cell lines assayed (5/7); Severe ER stress response (phosphorylation of JNK) [4]: Robust JNK phosphorylation was not seen with lower doses
"CC[C@H](C)[C@H](NC(=O)[C@H]1CCCCN1C)C(=O)N(C)[C@H](C[C@@H](OC(C)=O)c1nc(C(=O)N[C@@H](Cc2ccccc2)C[C@H](C)C(=O)O)cs1)C(C)C [Tubulysin M, tubulysin M, reference compound]",,,,,,,,,ATP secretion (cell lines responding) [8]: potent ATP secretion from 3 of 3 cell lines evaluated; Cytokine and chemokine production [9]: increase of the indicated cytokines and chemokines that was more robust than treatment with Paclitaxel
"C=C1C[C@@H]2CC[C@@]34C[C@H]5O[C@H]6[C@@H](O3)[C@H]3O[C@H](CC[C@@H]3O[C@H]6[C@H]5O4)CC(=O)C[C@@H]3[C@@H](OC)[C@@H](C[C@H](O)CN)O[C@H]3C[C@H]3O[C@@H](CC[C@@H]1O2)C[C@@H](C)C3=C [eribulin, reference compound]",Increased AIR secretion,elicits severe ER stress (phosphorylation of IRE1 and JNK),,,,,,,
CC[C@]1(O)C[C@H]2CN(CCc3c([nH]c4ccccc34)[C@@](C(=O)OC)(c3cc4c(cc3OC)N(C=O)[C@H]3[C@@](O)(C(=O)OC)[C@H](OC(C)=O)[C@]5(CC)C=CCN6CC[C@]43[C@@H]65)C2)C1 [vincristine],,,equivalent levels of ATP secretion,dose-dependent increase in luciferase signal,activated ER stress responses,increase in antigen-presentation in 1/2 tumor cell lines,robust ATP secretion,rapidly elicited severe ER stress,ATP secretion (cell lines responding) [10]: ATP secretion in most of the cell lines assayed (6/7); ATP secretion response compared with Paclitaxel [10]: more robust response than Paclitaxel in all cell lines assayed
ASG-22ME,,,,,,,,,ATP secretion (MDA-MB-468 cells): robust ATP secretion that was comparable to thapsigargin; ATP secretion (T-24 (bladder) cells): potent ATP secretion; Cytokine and chemokine production [11]: increase of the indicated cytokines and chemokines that was more robust than treatment with Paclitaxel; Macrophage antigen presentation (frequency of MHCII-expressing macrophages) [12]: increase in macrophage antigen presentation that was more robust than treatment with Paclitaxel
